Numbered stars: 1 amine (or outer) side, 2 acyl side, 3 side chain; on linkers, the order of the positions; unused ones are H or OH. Square brackets hold non-standard residues; d marks the D form. Ends that are not written are not given here. Peptide text beside a SMILES is read from it. ξ: configuration not given here. cisHyp = O=C(O)[C@@H]1C[C@H](O)CN1; X1 = O=C([C@H](CCCCO)N[*:1])[*:2]; Hyp = O=C(O)[C@@H]1C[C@@H](O)CN1; Ile(3ξ) = CCC(C)[C@H](N)C(=O)O; Thr(3ξ) = CC(O)[C@H](N)C(=O)O
How the values were obtained:
[1] = system: cornea of rats with dry eye syndrome (ELGE); test: Corneal permeability of fluorescent dye (corneal damage) in ELGE rats with dry eye syndrome; assay type: in vivo, rat; details: 5 μl/eye twice daily, day 14
Source text: (§1) In order to evaluate the eye protection effect on dry eye syndrome by YDE-001 to YDE-028 prepared in Example 1, a total of 320 Sprague-Dawley-type male rats (OrientBio, Seungnam, Korea) were adapted for 7 days. Thereafter, dry eye syndrome was induced in 264 test rats through extraorbital lacrimal gland excision (hereinafter, ELGE). 8 test rats without the eye abnormality were subjected to a sham operation as a control group.
(§2) The rat was systemically anesthetized by inhaling a mixed gas of 2% to 3% of isoflurane (Hana Pharm. Co., Hwasung, Korea), 70% of N2O, and 28.6% of O2 using a rodent anesthesia machine (Surgivet, Waukesha, Wis., USA) and a ventilator (Model 687, Harvard Apparatus, Cambridge, UK). Thereafter, the extraorbital lacrimal gland located in the subdermal area above the masseter muscle and […] was excised through a transverse incision in a size of 10 mm on the anterior part of the left ear tragus. The skin was sutured by a general method. […] After 6 days from the ELGE operation, it was checked through the Schirmer test by measuring the amount of tear secretion whether dry eye syndrome had been induced. Meanwhile, each rat of the control group with the sham operation was checked for the presence and location of the extraorbital lacrimal gland through a skin incision, and the skin was then sutured without the excision thereof (FIG. 4).
(§3) In addition, in order to evaluate the eye protection effect on dry eye syndrome by YDE-029 to YDE-043 prepared in Example 1, a total of 200 Sprague-Dawley-type male rats (OrientBio, Seungnam, Korea) were adapted for 7 days. Dry eye syndrome was induced in 165 test rats through the ELGE. 8 test rats without the eye abnormality were subjected to the sham operation as a control group. The ELGE was carried out as described above.
(§4) For YDE-001 to YDE-028, YY-102 and the 28 YDE-series were each dissolved in physiological saline at a concentration of 3 mg/ml and administered at a dose of 5 μl/eye at 9:30 am and 3:30 pm daily for 14 days after 7 days from the ELGE operation for a total of 28 times. The DS solution was dissolved in physiological saline at a concentration of 30 mg/ml and administered at a dose of […] twice a day for 14 days after 7 days from the ELGE operation for a total of 28 times. For the sham control and the ELGE control groups, the same stimulation as the administration was applied. In order to prevent excessive eye dryness, the same volume of physiological saline was applied in the same manner in place of the test substances.
as §4, with “Further, for YDE-029 to YDE-043,” for “For YDE-001 to YDE-028,”, “YDE-029 to YDE-043, YY-102 and” for “YDE-001 to YDE-028, YY-102 and”, “and the 15 YDE-series were” for “and the 28 YDE-series were”, “the test substances (FIG. 7).” for “the test substances.”
After YDE-001 to YDE-028 were each administered to the eyes […], the changes in the corneal permeability were checked.
In order to measure the corneal permeability, Zolethyl 50™ (Virbac Lab., Carros, France), an animal anesthetic, was intraperitoneally injected at a dose of 25 mg/kg. Thereafter, saline containing a 1% (v/v) fluorescent solution (fluorescein sodium salt, Tokyo Kasei Kogyo Co., Tokyo, Japan) was applied to the eyes at a dose of 5 μl/eye. The eyes thus treated were closed and fixed with a tape. After 1 hour, the remaining fluorescent solution was removed using a cotton swab (FIG. 12). […]

[2] = system: rats with dry eye syndrome (extraorbital lacrimal gland excision, ELGE); test: Amount of tear secretion (Schirmer test, cobalt chloride paper) in ELGE rats with dry eye syndrome; assay type: in vivo, rat; details: for Tear Volumes, Day 7 / Tear Volumes, Day 14: ELGE rats, 3 mg/ml, 5 μl/eye twice daily; for Tear Volumes, Day 7: day 7 of administration; for Tear Volumes, Day 14: day 14 of administration; for Change in amount of tear secretion as compared with the ELGE control group: 3% solution as printed, after administration for 14 days
Source text: as §1, §2, §3, §4
as §4, with “Further, for YDE-029 to YDE-043,” for “For YDE-001 to YDE-028,”, “YDE-029 to YDE-043, YY-102 and” for “YDE-001 to YDE-028, YY-102 and”, “and the 15 YDE-series were” for “and the 28 YDE-series were”, “the test substances (FIG. 7).” for “the test substances.”
After 6 days from the ELGE surgery, the changes in the amount of tear secretion were measured at day 7 and day 14 after the administration of YDE-001 to YDE-043. The amount of tear secretion was measured by the […] travel distance of tears absorbed by cobalt chloride paper in a size of 1×15 mm (Toyo Roshi Kaisha, Japan).
The cobalt chloride paper was placed in the lateral canthus of a rat for 60 seconds to absorb tears (FIG. 9). The length of the area absorbed from the corner of the cobalt chloride paper was measured with an electronic digital caliper (Mytutoyo, Tokyo, Japan) (FIG. 8).

[3] = Stability in aqueous solution under long-term storage conditions (related substances); assay type: physicochemical; details: 25° C., 75% RH
Description: In order to confirm the stability of each test substance in an aqueous solution, […] of each sample was dissolved in 1 ml of water to a concentration of 1 mg/ml, which was then charged to a glass vial, plugged with a rubber cap, sealed with an aluminum cap, and stored under long-term storage conditions (25° C., 75% RH). The stability of the test substance was evaluated by measuring the amount of related substances at the time of one week, two weeks, four weeks, eight weeks, and twelve weeks under the long-term storage conditions.

[4] = Table 7, study of YDE-029 to YDE-043, 3 mg/ml
[5] = Table 5, study of YDE-029 to YDE-043
[6] = Table 6, study of YDE-001 to YDE-028, 3 mg/ml
[7] = Table 4, study of YDE-001 to YDE-028

Row | Molecule | Permeability of fluorescent dye [1, 4] [%] | Tear Volumes, Day 7 [2, 5] [mm^3] | Tear Volumes, Day 14 [2, 5] [mm^3] | Change in amount of tear secretion as compared with the ELGE control group ([2]; study of YDE-029 to YDE-043) | Amount of related substances (after 12 weeks) [3] [%] | Permeability of fluorescent dye [1, 6] [%] | Tear Volumes, Day 7 [2, 7] [mm^3] | Tear Volumes, Day 14 [2, 7] [mm^3] | Change in amount of tear secretion as compared with the ELGE control group ([2]; study of YDE-001 to YDE-028)
1 | CC(C)C[C@H](NC(=O)CNC(=O)[C@H](CC(C)C)NC(=O)[C@H](CCC(N)=O)NC(=O)CNC(=O)[C@@H]1C[C@H](O)CN1)C(=O)N[C@@H](C)C(=O)NCC(=O)N1CCC[C@H]1C(=O)N[C@@H](CCCCN)C(=O)O [YDE-034] (H-[cisHyp]GQLGLAGPK-OH) | 32.17 ± 12.94 | 6.16 ± 1.01 | 6.43 ± 1.86 | did not show any significant changes | 1.25 | – | – | – | –
2 | CC(C)C[C@H](NC(=O)[C@H](CC(C)C)NC(=O)[C@H](CC(=O)O)NC(=O)[C@H](CCC(N)=O)NC(=O)CNC(=O)[C@@H]1C[C@@H](O)CN1)C(=O)N[C@@H](C)C(=O)NCC(=O)N1CCC[C@H]1C(=O)N[C@@H](CCCCN)C(=O)O [YDE-017] (H-[Hyp]GQDLLAGPK-OH) | – | – | – | – | 11.88 | 39.76 ± 7.42 | 4.00 ± 1.22 | 4.89 ± 1.50 | did not show any significant changes
3 | CC(C)C[C@H](NC(=O)CNC(=O)[C@H](CO)NC(=O)[C@H](CCC(N)=O)NC(=O)CNC(=O)[C@@H]1C[C@@H](O)CN1)C(=O)N[C@@H](C)C(=O)NCC(=O)N1CCC[C@H]1C(=O)N[C@@H](CCCCN)C(=O)O [YDE-006] (H-[Hyp]GQSGLAGPK-OH) | – | – | – | – | 3.67 | 33.23 ± 13.26 | 3.44 ± 1.69 | 5.35 ± 1.68 | –
4 | CC(C)C[C@H](NC(=O)CNC(=O)[C@H](CC(C)C)NC(=O)[C@H](CCC(N)=O)NC(=O)CNC(=O)[C@@H]1C[C@@H](O)CN1)C(=O)N[C@@H](C)C(=O)NCC(=O)N1CCC[C@H]1C(=O)N[C@@H](CCCCO)C(=O)O [YDE-033] (H-[Hyp]GQLGLAGP[X1]-OH) | 60.55 ± 21.22 | 4.99 ± 1.20 | 4.54 ± 1.16 | did not show any significant changes | 5.6 | – | – | – | –
5 | CC(C)C[C@H](NC(=O)CNC(=O)[C@H](Cc1c[nH]c2ccccc12)NC(=O)[C@H](CCC(N)=O)NC(=O)CNC(=O)[C@@H]1C[C@@H](O)CN1)C(=O)N[C@@H](C)C(=O)NCC(=O)N1CCC[C@H]1C(=O)N[C@@H](CCCCN)C(=O)O [YDE-014] (H-[Hyp]GQWGLAGPK-OH) | – | – | – | – | 6.72 | 31.15 ± 10.87 | 3.81 ± 1.21 | 5.62 ± 1.85 | –
6 | CC(C)C[C@H](NC(=O)[C@@H](NC(=O)[C@H](CC(=O)O)NC(=O)[C@H](CCC(N)=O)NC(=O)CNC(=O)[C@@H]1C[C@@H](O)CN1)C(C)O)C(=O)N[C@@H](C)C(=O)NCC(=O)N1CCC[C@H]1C(=O)N[C@@H](CCCCN)C(=O)O (stereo partly shown) [YDE-024] (H-[Hyp]GQD[Thr(3ξ)]LAGPK-OH) | – | – | – | – | 20.59 | 30.63 ± 10.41 | 3.85 ± 1.30 | 5.72 ± 1.36 | –
7 | PGQLGLAGPK [YDE-037] | 36.30 ± 9.75 | 4.98 ± 0.66 | 5.80 ± 0.90 | – | 2.88 | – | – | – | –
8 | CCC(C)[C@H](NC(=O)[C@H](CC(=O)O)NC(=O)[C@H](CCC(N)=O)NC(=O)CNC(=O)[C@@H]1C[C@@H](O)CN1)C(=O)N[C@@H](CC(C)C)C(=O)N[C@@H](C)C(=O)NCC(=O)N1CCC[C@H]1C(=O)N[C@@H](CCCCN)C(=O)O (stereo partly shown) [YDE-016] (H-[Hyp]GQD[Ile(3ξ)]LAGPK-OH) | – | – | – | – | 11.33 | 24.57 ± 10.34 | 4.59 ± 1.13 | 5.98 ± 2.27 | –
9 | CC(C)C[C@H](NC(=O)CNC(=O)[C@H](Cc1cnc[nH]1)NC(=O)[C@H](CCC(N)=O)NC(=O)CNC(=O)[C@@H]1C[C@@H](O)CN1)C(=O)N[C@@H](C)C(=O)NCC(=O)N1CCC[C@H]1C(=O)N[C@@H](CCCCN)C(=O)O [YDE-004] (H-[Hyp]GQHGLAGPK-OH) | – | – | – | – | 2.11 | 35.05 ± 11.74 | 3.42 ± 1.06 | 5.19 ± 1.84 | –
10 | CC(C)C[C@H](NC(=O)[C@H](Cc1c[nH]cn1)NC(=O)[C@H](CC(=O)O)NC(=O)[C@H](CCC(N)=O)NC(=O)CNC(=O)[C@@H]1C[C@@H](O)CN1)C(=O)N[C@@H](C)C(=O)NCC(=O)N1CCC[C@H]1C(=O)N[C@@H](CCCCN)C(=O)O [YDE-022] (H-[Hyp]GQDHLAGPK-OH) | – | – | – | – | 19.23 | 47.82 ± 10.01 | 3.19 ± 0.67 | 4.10 ± 0.95 | did not show any significant changes
11 | O=c1ccn([C@@H]2O[C@H](COP(=O)(O)OP(=O)(O)OP(=O)(O)OP(=O)(O)OC[C@H]3O[C@@H](n4ccc(=O)[nH]c4=O)[C@H](O)[C@@H]3O)[C@@H](O)[C@H]2O)c(=O)[nH]1 [DS, diquafosol sodium, reference compound] | – | – | – | increased | – | – | – | – | increased
